Literature values, collected in patent US11802256B2, “Method for extracting palmitoleic acid from macadamia integrifolia and use thereof” (SOUTHWEST FORESTRY UNIVERSITY, priority 2021, dated 2023).

Assays:
tyrosinase = biological target: T1, tyrosinase (Mus musculus, UniProt P11344); details: mouse melanocytes, at a protein level
T1 construct: host or cells: mouse melanocytes / mouse melanoma cells (endogenous)
T1 sequence (P11344 19-533): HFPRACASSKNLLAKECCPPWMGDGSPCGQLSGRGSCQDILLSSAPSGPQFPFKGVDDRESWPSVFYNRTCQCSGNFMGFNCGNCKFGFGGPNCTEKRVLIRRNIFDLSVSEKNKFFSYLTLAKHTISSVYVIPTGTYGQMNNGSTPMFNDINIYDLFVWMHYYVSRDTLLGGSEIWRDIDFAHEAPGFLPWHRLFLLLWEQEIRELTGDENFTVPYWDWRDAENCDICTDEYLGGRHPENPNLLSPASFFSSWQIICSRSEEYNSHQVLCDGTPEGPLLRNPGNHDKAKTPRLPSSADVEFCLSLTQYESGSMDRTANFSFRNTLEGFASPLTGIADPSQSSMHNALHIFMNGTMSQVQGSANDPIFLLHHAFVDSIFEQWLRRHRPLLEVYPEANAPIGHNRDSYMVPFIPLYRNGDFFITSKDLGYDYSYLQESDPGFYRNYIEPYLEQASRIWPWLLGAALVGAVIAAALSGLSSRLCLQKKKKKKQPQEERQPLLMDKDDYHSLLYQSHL

In the case of `CCCCCC/C=C\CCCCCCCC(=O)O` [palmitoleic acid], the “inhibitory effect on melanin production” value (mouse melanoma cells) is given as “strong inhibitory effect” and the tyrosinase activity (tyrosinase) is given as “inhibits tyrosinase activity”.
